Read-outs that look alike come from different tables or passages of the source.
System: Angiotensin II (AII) vasopressor response
Assay: AII Challenge: antagonism of angiotensin II vasopressor response in conscious spontaneously hypertensive rats
Format: in vivo, rat (male okamoto-Aoki SHR)
Conditions: for inhibition in vivo at 3 mg/kg: Rattus norvegicus, read-out: Inhibition; for Change: single SHR
Procedure, shortened: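 Conscious male SHR (16–20 weeks, ~330 g) cannulated under local procaine, blood pressure recorded via transducer. Angiotensin II (human) 0.05 and 0.1 ug/kg i.v. given before and after test compound dosed i.v., i.p. or orally; response measured as rise in systolic pressure (mmHg).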

[1] = iv, 0.5 h, SHR n=2, 3 mg/kg I.V., AII 0.05 mcg/kg IV, 30 min post dose
[2] = iv, 0.5 h, SHR n=2, 3 mg/kg I.V., AII 0.1 mcg/kg IV, 30 min post dose
[3] = iv, 1 h, SHR n=2, 3 mg/kg I.V., AII 0.05 mcg/kg IV, 60 min post dose
[4] = iv, 1 h, SHR n=2, 3 mg/kg I.V., AII 0.1 mcg/kg IV, 60 min post dose
[5] = iv, 2 h, SHR n=2, 3 mg/kg I.V., AII 0.05 mcg/kg IV, 120 min post dose
[6] = iv, 2 h, SHR n=2, 3 mg/kg I.V., AII 0.1 mcg/kg IV, 120 min post dose
[7] = iv, 3 h, SHR n=2, 3 mg/kg I.V., AII 0.1 mcg/kg IV, 180 min post dose
[8] = iv, 4 h, SHR n=2, 3 mg/kg I.V., AII 0.05 mcg/kg IV, 240 min post dose
[9] = iv, 5 h, SHR n=2, 3 mg/kg I.V., AII 0.05 mcg/kg IV, 300 min post dose
[10] = iv, 5 h, SHR n=2, 3 mg/kg I.V., AII 0.1 mcg/kg IV, 300 min post dose
[11] = iv, […], SHR n=2, 3 mg/kg I.V., AII 0.05 mcg/kg IV, 90 min post dose
[12] = iv, […], SHR n=2, 3 mg/kg I.V., AII 0.1 mcg/kg IV, 90 min post dose
[13] = po, 0.5 h, SHR n=2, 3 mg/kg P.O., AII 0.05 mcg/kg IV, 30 min post dose
[14] = po, 0.5 h, SHR n=2, 3 mg/kg P.O., AII 0.1 mcg/kg IV, 30 min post dose
[15] = po, 1 h, SHR n=2, 3 mg/kg P.O., AII 0.05 mcg/kg IV, 60 min post dose
[16] = po, 1 h, SHR n=2, 3 mg/kg P.O., AII 0.1 mcg/kg IV, 60 min post dose
[17] = po, 2 h, SHR n=2, 3 mg/kg P.O., AII 0.05 mcg/kg IV, 120 min post dose
[18] = po, 2 h, SHR n=2, 3 mg/kg P.O., AII 0.1 mcg/kg IV, 120 min post dose
[19] = po, 3 h, SHR n=2, 3 mg/kg P.O., AII 0.05 mcg/kg IV, 180 min post dose
[20] = po, 3 h, SHR n=2, 3 mg/kg P.O., AII 0.1 mcg/kg IV, 180 min post dose
[21] = po, […], SHR n=2, 3 mg/kg P.O., AII 0.05 mcg/kg IV, 90 min post dose
[22] = po, […], SHR n=2, 3 mg/kg P.O., AII 0.1 mcg/kg IV, 90 min post dose
[23] = SHR n=2, 3 mg/kg I.V., AII 0.05 mcg/kg IV, 30 min post dose
[24] = SHR n=2, 3 mg/kg I.V., AII 0.05 mcg/kg IV, 60 min post dose
[25] = SHR n=2, 3 mg/kg I.V., AII 0.05 mcg/kg IV, 90 min post dose
[26] = SHR n=2, 3 mg/kg I.V., AII 0.05 mcg/kg IV, 120 min post dose
[27] = SHR n=2, 3 mg/kg I.V., AII 0.05 mcg/kg IV, 180 min post dose
[28] = SHR n=2, 3 mg/kg I.V., AII 0.05 mcg/kg IV, 240 min post dose
[29] = SHR n=2, 3 mg/kg I.V., AII 0.05 mcg/kg IV, 300 min post dose
[30] = SHR n=2, 3 mg/kg I.V., AII 0.1 mcg/kg IV, 30 min post dose
[31] = SHR n=2, 3 mg/kg I.V., AII 0.1 mcg/kg IV, 60 min post dose
[32] = SHR n=2, 3 mg/kg I.V., AII 0.1 mcg/kg IV, 90 min post dose
[33] = SHR n=2, 3 mg/kg I.V., AII 0.1 mcg/kg IV, 120 min post dose
[34] = SHR n=2, 3 mg/kg I.V., AII 0.1 mcg/kg IV, 180 min post dose
[35] = SHR n=2, 3 mg/kg I.V., AII 0.1 mcg/kg IV, 240 min post dose
[36] = SHR n=2, 3 mg/kg I.V., AII 0.1 mcg/kg IV, 300 min post dose
[37] = SHR n=2, 3 mg/kg P.O., AII 0.05 mcg/kg IV, 30 min post dose
[38] = SHR n=2, 3 mg/kg P.O., AII 0.05 mcg/kg IV, 60 min post dose
[39] = SHR n=2, 3 mg/kg P.O., AII 0.05 mcg/kg IV, 90 min post dose
[40] = SHR n=2, 3 mg/kg P.O., AII 0.05 mcg/kg IV, 120 min post dose
[41] = SHR n=2, 3 mg/kg P.O., AII 0.05 mcg/kg IV, 180 min post dose
[42] = SHR n=2, 3 mg/kg P.O., AII 0.1 mcg/kg IV, 30 min post dose
[43] = SHR n=2, 3 mg/kg P.O., AII 0.1 mcg/kg IV, 60 min post dose
[44] = SHR n=2, 3 mg/kg P.O., AII 0.1 mcg/kg IV, 90 min post dose
[45] = SHR n=2, 3 mg/kg P.O., AII 0.1 mcg/kg IV, 120 min post dose
[46] = SHR n=2, 3 mg/kg P.O., AII 0.1 mcg/kg IV, 180 min post dose
[47] = 3 mg/kg I.V., AII 0.05 mcg/kg IV, 60 min post dose
[48] = 3 mg/kg I.V., AII 0.05 mcg/kg IV, 90 min post dose
[49] = 3 mg/kg I.V., AII 0.1 mcg/kg IV, 90 min post dose

`CCCCc1nc2ccc([C@H]3[C@@H]4C(=O)CC[C@@H]4ON3Cc3ccccc3)cc2c(=O)n1Cc1ccc(-c2ccccc2-c2nnn[nH]2)cc1` (relative stereo) [Example 55] was tested, and the inhibition in vivo at 3 mg/kg [1] was 97%, the inhibition in vivo at 3 mg/kg [2] was 95% and the inhibition in vivo at 3 mg/kg [3] was 100%. The inhibition in vivo at 3 mg/kg [4] was 95%, the inhibition in vivo at 3 mg/kg [5] was 97% and the inhibition in vivo at 3 mg/kg [6] was 94%. For the same molecule, the inhibition in vivo at 3 mg/kg [7] was 77%, the inhibition in vivo at 3 mg/kg [8] was 89% and the inhibition in vivo at 3 mg/kg (iv, 4 h) was 82%. For the same molecule, the inhibition in vivo at 3 mg/kg [9] was 61%, the inhibition in vivo at 3 mg/kg [10] was 50% and the inhibition in vivo at 3 mg/kg [11] was 89%. The inhibition in vivo at 3 mg/kg [12] was 91%, the inhibition in vivo at 3 mg/kg [13] was 21% and the inhibition in vivo at 3 mg/kg [14] was 17%. It also gave an inhibition in vivo at 3 mg/kg [15] of 7%, an inhibition in vivo at 3 mg/kg [16] of 11% and an inhibition in vivo at 3 mg/kg [17] of 21%. The inhibition in vivo at 3 mg/kg [18] was 39%, the inhibition in vivo at 3 mg/kg [19] was 14% and the inhibition in vivo at 3 mg/kg [20] was 28%. For the same molecule, the inhibition in vivo at 3 mg/kg [21] was 14%, the inhibition in vivo at 3 mg/kg [22] was 17% and the “Average Change” value [23] was 1.5 mmHg. For the same molecule, the “Average Change” value [24] was 0 mmHg, the “Average Change” value [25] was 5 mmHg and the “Average Change” value [26] was 1.5 mmHg. The “Average Change” value [27] was 2.5 mmHg, the “Average Change” value [28] was 5 mmHg and the “Average Change” value [29] was 17.5 mmHg. For the same molecule, the “Average Change” value [30] was 2.5 mmHg, the “Average Change” value [31] was 2.5 mmHg and the “Average Change” value [32] was 5 mmHg. The “Average Change” value [33] was 3.5 mmHg, the “Average Change” value [34] was 12.5 mmHg and the “Average Change” value [35] was 10 mmHg. For the same molecule, the “Average Change” value [36] was 27.5 mmHg, the “Average Change” value [37] was 27.5 mmHg and the “Average Change” value [38] was 32.5 mmHg. The “Average Change” value [39] was 30 mmHg, the “Average Change” value [40] was 27.5 mmHg and the “Average Change” value [41] was 30 mmHg. For the same molecule, the “Average Change” value [42] was 37.5 mmHg, the “Average Change” value [43] was 40 mmHg and the “Average Change” value [44] was 37.5 mmHg. For the same molecule, the “Average Change” value [45] was 27.5 mmHg, the “Average Change” value [46] was 32.5 mmHg and the Change [47] was 0 mmHg. The Change [48] was 5 mmHg, the Change (3 mg/kg I.V., AII 0.05 mcg/kg IV, 240 min post dose) was 5 mmHg and the Change [49] was 5 mmHg. For the same molecule, the Change (3 mg/kg I.V., AII 0.1 mcg/kg IV, 240 min post dose) was 10 mmHg and the Change (3 mg/kg P.O., AII 0.1 mcg/kg IV, 60 min post dose) was 40 mmHg.

Molecule `CCCCc1nc2ccc([C@@H]3[C@@H]4C(=O)OC[C@@H]4ON3Cc3ccccc3)cc2c(=O)n1Cc1ccc(-c2ccccc2-c2nnn[nH]2)cc1` (relative stereo) [Example 56] has an inhibition in vivo at 3 mg/kg [1] of 100%, an inhibition in vivo at 3 mg/kg [2] of 100% and an inhibition in vivo at 3 mg/kg [3] of 100%. It also gave an inhibition in vivo at 3 mg/kg [4] of 89%, an inhibition in vivo at 3 mg/kg [5] of 77% and an inhibition in vivo at 3 mg/kg [6] of 78%. It also gave an inhibition in vivo at 3 mg/kg (iv, 3 h, SHR n=2, 3 mg/kg I.V., AII 0.05 mcg/kg IV, 180 min post dose) of 77%, an inhibition in vivo at 3 mg/kg [7] of 76% and an inhibition in vivo at 3 mg/kg [8] of 72%. For the same molecule, the inhibition in vivo at 3 mg/kg (iv, 4 h, SHR n=2, 3 mg/kg I.V., AII 0.1 mcg/kg IV, 240 min post dose) was 56%, the inhibition in vivo at 3 mg/kg [9] was 65% and the inhibition in vivo at 3 mg/kg [10] was 67%. The inhibition in vivo at 3 mg/kg [11] was 100%, the inhibition in vivo at 3 mg/kg [12] was 89% and the inhibition in vivo at 3 mg/kg [13] was 31%. The inhibition in vivo at 3 mg/kg [14] was 11%, the inhibition in vivo at 3 mg/kg [15] was 18% and the inhibition in vivo at 3 mg/kg [16] was 19%. The inhibition in vivo at 3 mg/kg [17] was 36%, the inhibition in vivo at 3 mg/kg [18] was 27% and the inhibition in vivo at 3 mg/kg [19] was -9%. The inhibition in vivo at 3 mg/kg [20] was 3%, the inhibition in vivo at 3 mg/kg [21] was 36% and the inhibition in vivo at 3 mg/kg [22] was 19%. For the same molecule, the “Average Change” value [23] was 0 mmHg, the “Average Change” value [24] was 0 mmHg and the “Average Change” value [25] was 0 mmHg. The “Average Change” value [26] was 7.5 mmHg, the “Average Change” value [27] was 7.5 mmHg and the “Average Change” value [28] was 9 mmHg. The “Average Change” value [29] was 11.5 mmHg, the “Average Change” value [30] was 0 mmHg and the “Average Change” value [31] was 5 mmHg. The “Average Change” value [32] was 5 mmHg, the “Average Change” value [33] was 10 mmHg and the “Average Change” value [34] was 11 mmHg. For the same molecule, the “Average Change” value [35] was 20 mmHg, the “Average Change” value [36] was 15 mmHg and the “Average Change” value [37] was 19 mmHg. For the same molecule, the “Average Change” value [38] was 22.5 mmHg, the “Average Change” value [39] was 17.5 mmHg and the “Average Change” value [40] was 17.5 mmHg. For the same molecule, the “Average Change” value [41] was 30 mmHg, the “Average Change” value [42] was 27.5 mmHg and the “Average Change” value [43] was 25 mmHg. The “Average Change” value [44] was 25 mmHg, the “Average Change” value [45] was 22.5 mmHg and the “Average Change” value [46] was 30 mmHg. It also gave a Change (3 mg/kg I.V., AII 0.05 mcg/kg IV, 30 min post dose) of 0 mmHg, a Change [47] of 0 mmHg and a Change [48] of 0 mmHg. The Change (3 mg/kg I.V., AII 0.1 mcg/kg IV, 30 min post dose) was 0 mmHg, the Change (3 mg/kg I.V., AII 0.1 mcg/kg IV, 60 min post dose) was 5 mmHg and the Change [49] was 5 mmHg. For the same molecule, the Change (3 mg/kg I.V., AII 0.1 mcg/kg IV, 120 min post dose) was 10 mmHg and the Change (3 mg/kg P.O., AII 0.1 mcg/kg IV, 180 min post dose) was 30 mmHg.
